What follows are molecules tested on HBV (assay: HBV replication inhibition assay (BDNA assay) in HepG2.2.15 cells). Details: HBV replication assay (BDNA assay), HepG2.2.15 cells; read-out: DNA EC50.
Format: cell-based
Procedure, shortened: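 Supernatant encapsidated HBV DNA was measured by bDNA after DNase digestion and proteinase K release. Stably HBV-integrated HepG2.2.15 cells had two 3-day compound exposures (0.5% DMSO). Signals were background-subtracted and normalized to DMSO wells, and EC50 was obtained by four-parameter fit.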

Question: For `C[C@@H]1Cc2nn3c(c2CN1C(=O)Nc1ccc(F)c(C#N)c1)C(=O)N(C)OC(CN(C)C)C3` (stereo in doubt) [Compound 096_D1, (4S*,9R)—N-(3-cyano-4-fluorophenyl)-4-((dimethylamino)methyl)-2,9-dimethyl-1-oxo-1,4,5,8,9,11-hexahydropyrido[4′,3′:3,4]pyrazolo[5,1-d][1,2,5]oxadiazepine-10(2H)-carboxamide], which EC50 is on record?
Answer: 100 to 500 nM

Question: For `C[C@@H]1Cc2nn3c(c2CN1C(=O)Nc1ccc(F)c(Br)c1)C(=O)N(C)OC(CN)C3` (stereo in doubt) [Compound 117_D2, (4R*,9R)-4-(aminomethyl)-N-(3-bromo-4-fluorophenyl)-2,9-dimethyl-1-oxo-1,4,5,8,9,11-hexahydropyrido[4′,3′:3,4]pyrazolo[5,1-d][1,2,5]oxadiazepine-10(2H)-carboxamide], which EC50 is on record?
Answer: 1 to 100 nM

Question: Which EC50 does the source give for `C[C@@H]1Cc2nn3c(c2CN1C(=O)Nc1ccc(F)c(C#N)c1)C(=O)N(C)OC(CF)C3` (stereo in doubt) [Compound 087_E2, (4R*,9R)—N-(3-cyano-4-fluorophenyl)-4-(fluoromethyl)-2,9-dimethyl-1-oxo-1,4,5,8,9,11-hexahydropyrido[4′,3′:3,4]pyrazolo[5,1-d][1,2,5]oxadiazepine-10(2H)-carboxamide] here?
Answer: 1 to 100 nM

Question: How did the EC50 turn out when `CNC(=O)C1Cn2nc3c(c2C(=O)N(C)O1)CN(C(=O)Nc1ccc(F)c(C#N)c1)[C@H](C)C3` (stereo in doubt) [Compound 112_D2, (4R*,9R)—N10-(3-cyano-4-fluorophenyl)-N4,2,9-trimethyl-1-oxo-1,4,5,8,9,11-hexahydropyrido[4′,3′:3,4]pyrazolo[5,1-d][1,2,5]oxadiazepine-4,10(2H)-dicarboxamide] was run?
Answer: 1 to 100 nM

Question: Which EC50 does the source give for `Cc1cc(NC(=O)N2Cc3c(nn4c3C(=O)N(C)OC(CO)C4)C[C@H]2C)ccc1F` (single isomer, unassigned) [Compound 083_E2, (4R*,9R)—N-(4-fluoro-3-methylphenyl)-4-(hydroxymethyl)-2,9-dimethyl-1-oxo-1,4,5,8,9,11-hexahydropyrido[4′,3′:3,4]pyrazolo [5,1-d][1,2,5]oxadiazepine-10(2H)-carboxamide] here?
Answer: 1 to 100 nM

Question: `C[C@@H]1Cc2nn3c(c2CN1C(=O)Nc1cc(Br)c(F)cc1F)C(=O)N(C)OC(COCC(F)F)C3` (single isomer, unassigned) [Compound 108_D1, (4S*,9R)—N-(5-bromo-2,4-difluorophenyl)-4-((2,2-difluoroethoxy)methyl)-2,9-dimethyl-1-oxo-1,4,5,8,9,11-hexahydropyrido[4′,3′:3,4]pyrazolo[5,1-d][1,2,5]oxadiazepine-10(2H)-carboxamide] was tested. Which EC50 did it give?
Answer: 100 to 500 nM

Same assay, conditions: Hepatitis B virus, HepG2.2.15, HBV replication assay (BDNA assay), HepG2.2.15 cells; read-out: DNA EC50

Question: Which EC50 does the source give for `CN1N=C(C(O)C2CC2)Cn2nc3c(c2C1=O)CN(C(=O)Nc1ccc(F)c(Cl)c1)CC3` (stereo not shown) [Compound 231, N-(3-chloro-4-fluorophenyl)-4-(cyclopropyl(hydroxy)methyl)-2-methyl-1-oxo-1,2,5,8,9,11-hexahydro-10H-pyrido[4′,3′:3,4]pyrazolo[5,1-d][1,2,5]triazepine-10-carboxamide] here?
Answer: 100 to 500 nM

Question: Which EC50 does the source give for `C=CCN1OCCn2nc3c(c2C1=O)CN(C(=O)Nc1ccc(F)c(Cl)c1)CC3` [Compound 067, 2-allyl-N-(3-chloro-4-fluoro-phenyl)-1-oxo-5,8,9,11-tetrahydro-4H-pyrido[2,3]pyrazolo[2,4-c][1,2,5]oxadiazepine-10-carboxamide] here?
Answer: 1 to 100 nM

Question: For `CC1CON(C)C(=O)c2c3c(nn21)CCN(C(=O)Nc1ccc(F)c(Cl)c1)C3` (stereo not shown) [Compound 061, N-(3-chloro-4-fluoro-phenyl)-2,5-dimethyl-1-oxo-5,8,9,11-tetrahydro-4H-pyrido[2,3]pyrazolo[2,4-d][1,2,5]oxadiazepine-10-carboxamide], which EC50 is on record?
Answer: 1 to 100 nM

Question: `Cc1cc(NC(=O)N2Cc3c(nn4c3C(=O)N(C)OC(CN(C)C)C4)C[C@H]2C)ccc1F` (stereo in doubt) [Compound 097_D1, (4 S*,9R)-4-((dimethylamino)methyl)-N-(4-fluoro-3-methylphenyl)-2,9-dimethyl-1-oxo-1,4,5,8,9,11-hexahydropyrido[4′,3′:3,4]pyrazolo[5,1-d][1,2,5]oxadiazepine-10(2H)-carboxamide] was tested. Which EC50 did it give?
Answer: 1 to 100 nM

Question: For `CN1OC(CO)Cn2nc3c(c2C1=O)CN(C(=O)Nc1cccc(Cl)c1)CC3(C)C` (stereo not shown) [Compound 046, N-(3-chlorophenyl)-4-(hydroxymethyl)-2,8,8-trimethyl-1-oxo-1,4,5,8,9,11-hexahydropyrido[4′,3′:3,4]pyrazolo[5,1-d][1,2,5]oxadiazepine-10(2H)-carboxamide], which EC50 is on record?
Answer: 100 to 500 nM

Question: Which EC50 does the source give for `COC(=O)OCC1Cn2nc3c(c2C(=O)N(C)O1)CN(C(=O)Nc1ccc(F)c(Cl)c1)CC3` (stereo not shown) [Compound 051, (10-((3-chloro-4-fluorophenyl)carbamoyl)-2-methyl-1-oxo-1,2,4,5,8,9,10,11-octahydropyrido[4′,3′:3,4]pyrazolo[5,1-d][1,2,5]oxadiazepin-4-yl)methyl methyl carbonate] here?
Answer: 1 to 100 nM

Question: How did the EC50 turn out when `CN1NCCn2nc3c(c2C1=O)CN(C(=O)Nc1ccc(F)c(Cl)c1)CC3` [Compound 216, N-(3-Chloro-4-fluoro-phenyl)-2-methyl-1-oxo-3,4,5,8,9,11-hexahydropyrido[2,3]pyrazolo[2,4-c][1,2,5]triazepine-10-carboxamide] was run?
Answer: 100 to 500 nM

Question: Which EC50 does the source give for `CN1O[C@@H](C[S@@+](C)[O-])Cn2nc3c(c2C1=O)CN(C(=O)Nc1ccc(F)c(Cl)c1)CC3` (stereo in doubt) [Compound 049_E3, (R*)—N-(3-chloro-4-fluorophenyl)-2-methyl-4-(((R*)-methylsulfinyl)methyl)-1-oxo-1,4,5,8,9,11-hexahydropyrido[4′,3′:3,4]pyrazolo[5,1-d][1,2,5]oxadiazepine-10(2H)-carboxamide] here?
Answer: 1 to 100 nM

Question: How did the EC50 turn out when `Cc1ccc(C)c(NC(=O)N2CCc3nn4c(c3C2)C(=O)N(C)OC(CO)C4)c1` (stereo not shown) [Compound 016, N-(2,5-dimethylphenyl)-4-(hydroxymethyl)-2-methyl-1-oxo-1,4,5,8,9,11-hexahydropyrido[4′,3′:3,4]pyrazolo[5,1-d][1,2,5]oxadiazepine-10(2H)-carboxamide] was run?
Answer: 1 to 100 nM

Question: With `CC1CN(C(=O)Nc2cccc(Cl)c2)Cc2c1nn1c2C(=O)N(C)OC(CO)C1` (stereo not shown) [Compound 047, N-(3-chlorophenyl)-4-(hydroxymethyl)-2,8-dimethyl-1-oxo-1,4,5,8,9,11-hexahydropyrido[4′,3′:3,4]pyrazolo[5,1-d][1,2,5]oxadiazepine-10(2H)-carboxamide] as the molecule, how does the EC50 read?
Answer: 100 to 500 nM

Question: How did the EC50 turn out when `CC(=O)NCC1Cn2nc3c(c2C(=O)N(C)O1)CN(C(=O)Nc1ccc(F)c(C(F)(F)F)c1F)CC3` (single isomer, unassigned) [Compound 172_E1, (S*)-4-(acetamidomethyl)-N-(2,4-difluoro-3-(trifluoromethyl)phenyl)-2-methyl-1-oxo-1,4,5,8,9,11-hexahydropyrido[4′,3′:3,4]pyrazolo[5,1-d][1,2,5]oxadiazepine-10(2H)-carboxamide] was run?
Answer: 1 to 100 nM

Question: `CN(C)C(=O)OCC1Cn2nc3c(c2C(=O)N(C)O1)CN(C(=O)Nc1ccc(F)c(Cl)c1)CC3` (stereo not shown) [Compound 059, [10-[(3-chloro-4-fluoro-phenyl)carbamoyl]-2-methyl-1-oxo-5,8,9,11-tetrahydro-4H-pyrido[2,3]pyrazolo[2,4-d][1,2,5]oxadiazepin-4-yl]methyl N,N-dimethylcarbamate] was tested. Which EC50 did it give?
Answer: 1 to 100 nM

Question: How did the EC50 turn out when `Cc1cc(NC(=O)N2Cc3c(nn4c3C(=O)N(C)OC(CF)C4)C[C@H]2C)ccc1F` (stereo in doubt) [Compound 086_E1, (4S*,9R)—N-(4-fluoro-3-methylphenyl)-4-(fluoromethyl)-2,9-dimethyl-1-oxo-1,4,5,8,9,11-hexahydropyrido[4′,3′:3,4]pyrazolo[5,1-d][1,2,5]oxadiazepine-10(2H)-carboxamide] was run?
Answer: 1 to 100 nM

Question: For `CN1OC(COCC(F)F)Cn2nc3c(c2C1=O)CN(C(=O)Nc1ccc(F)c(Cl)c1)CC3` (stereo not shown) [Compound 105, N-(3-chloro-4-fluoro-phenyl)-4-(2,2-difluoroethoxymethyl)-2-methyl-1-oxo-5,8,9,11-tetrahydro-4H-pyrido[2,3]pyrazolo[2,4-d][1,2,5]oxadiazepine-10-carboxamide], which EC50 is on record?
Answer: 1 to 100 nM

Question: With `CC[C@H]1Cc2nn3c(c2CN1C(=O)Nc1ccc(F)c(Cl)c1)C(=O)N(C)O[C@H](CO)C3` (stereo in doubt) [Compound 109_D1, (4S*,9S*)—N-(3-chloro-4-fluorophenyl)-9-ethyl-4-(hydroxymethyl)-2-methyl-1-oxo-1,4,5,8,9,11-hexahydropyrido[4′,3′:3,4]pyrazolo[5,1-d][1,2,5]oxadiazepine-10(2H)-carboxamide] as the molecule, how does the EC50 read?
Answer: 100 to 500 nM

Question: With `CC(=O)NCC1Cn2nc3c(c2C(=O)N(C)O1)CN(C(=O)Nc1ccc(F)c(Br)c1)CC3` (single isomer, unassigned) [Compound 171_E1, (S*)-4-(acetamidomethyl)-N-(3-bromo-4-fluorophenyl)-2-methyl-1-oxo-1,4,5,8,9,11-hexahydropyrido[4′,3′:3,4]pyrazolo[5,1-d][1,2,5]oxadiazepine-10(2H)-carboxamide] as the molecule, how does the EC50 read?
Answer: 1 to 100 nM

Question: With `CN1OC(CNS(=O)(=O)CC(F)(F)F)Cn2nc3c(c2C1=O)CN(C(=O)Nc1ccc(F)c(Cl)c1)CC3` (stereo not shown) [Compound 130, N-(3-chloro-4-fluorophenyl)-2-methyl-1-oxo-4-(((2,2,2-trifluoroethyl)sulfonamido)methyl)-1,4,5,8,9,11-hexahydropyrido[4′,3′:3,4]pyrazolo[5,1-d][1,2,5]oxadiazepine-10(2H)-carboxamide] as the molecule, how does the EC50 read?
Answer: 1 to 100 nM

Question: With `CCc1cccc(NC(=O)N2CCc3nn4c(c3C2)C(=O)N(C)OC(CO)C4)c1` (stereo not shown) [Compound 009, N-(3-ethylphenyl)-4-(hydroxymethyl)-2-methyl-1-oxo-1,4,5,8,9,11-hexahydropyrido[4′,3′:3,4]pyrazolo[5,1-d][1,2,5]oxadiazepine-10(2H)-carboxamide] as the molecule, how does the EC50 read?
Answer: 1 to 100 nM

Question: With `CN1OC(CF)Cn2nc3c(c2C1=O)CN(C(=O)Nc1ccc(F)c(Br)c1)CC3` (single isomer, unassigned) [Compound 040_E1, (S*)—N-(3-bromo-4-fluorophenyl)-4-(fluoromethyl)-2-methyl-1-oxo-1,4,5,8,9,11-hexahydropyrido[4′,3′:3,4]pyrazolo[5,1-d][1,2,5]oxadiazepine-10(2H)-carboxamide] as the molecule, how does the EC50 read?
Answer: 1 to 100 nM

Source: patent US10987359B2, “Oxadiazepinone derivatives and methods of treating hepatitis B infections” (priority 2016, dated 2021)
